According to patent US20080207544A1, “Compositions And Methods For Delivery Of Agents Into Cells” (priority 2005, published 2008):

Tests used:
RG2 cells = assay: Luciferase gene transfer activity of modified lipoplexes in RG2 cells; format: cell-based, rat; details: 48 hours, 1 μg per well
Description: FIG. 12. In vitro gene transfer activity of lipoplexes modified with different lipids. Complexes with DOPE-MPB-Cys, DOPE or CXCR4-lipopeptide were incubated with RG2 cells (1 μg pLC0888/well). Each point is an average of three wells ±SD.
Preparation of lipoplexes. The lipid-based transfection-reagent (Genzyme lipid 89:Lym-X-Sorb:Vitamin E 10:89:1) was prepared aseptically by mixing 8 μl of Genzyme lipid 89 (25 mg/ml in chloroform or 0.038 μmoles/μl) (Genzyme, Cambridge, Mass.); 7.5 μl Lym-X-Sorb (138 mg/ml in chloroform or 0.365 μmoles/μl) (Avanti Polar Lipids, Birmingham, Ala.) and 2.2 μl Vitamin E (5.905 mg/ml or 0.0137 μmoles/μl) (Sigma, St Louis, Mo.) in a clean reagent-tube. Once the lipids were thoroughly mixed the solvent was evaporated using argon. Residual solvent was removed by placing the vial under a vacuum in the desiccator for 30 mins. The dried lipid-film was hydrated with 3 ml of HEPES Buffered Saline (HBS; 7.5 mM HEPES, 150 mM NaCl). After hydration the transfection-mixture was bath-sonicated for 5 minutes. […]
Luciferase-Assay. […] 150 μl of lysisbuffer (0.1 M potassium phosphate buffer; 1% Tx-100; 1 mM DTT; 2 mM EDTA; pH=7.8) (Sigma, St. Louis, Mo.) was added to each well and the plate was stored at −80° C. for 10 minutes or until ready to be assayed. […]

B16 melanoma cells = assay: Luciferase transfection of B16 cells with FGF receptor targeted lipoplexes; format: cell-based; details: same experimental conditions as RG2
Description: FIG. 13. Transfection of B16 cells by implementation of FGF receptor targeted lipoplexes. Transfection With CXCR4-ligand targeted lipoplexes leads to increased transfection-efficiency in vitro. Whether increased specific binding to cells expressing the targeted receptor leads to increased transfection-efficiency in vitro is tested by transfecting cells with targeted and untargeted lipoplexes expressing the reporter-enzyme luciferase. Many tumor cell-lines express CXCR4, including the RG2 cell-line (as confirmed by flow cytometry; data not shown). These cells are efficiently transfected with lipoplexes prepared as described in the materials and methods section. Transfection of cells with untargeted lipoplexes coding for GFP at a dose of 1 μg DNA per 50,000 cells typically leads to a 30-40% transfection-efficiency after 48 hours (data not shown). However, whenever the lipid-composition of the optimized formulation was changed by titrating in cysteine-modified DOPE-MPB (DOPE-MPB-Cys) or DOPE instead of Lym-X-Sorb (i.e. modification of helper-lipids); the transfection-efficiency decreased steadily. Even at low concentrations of DOPE-MPB-Cys and DOPE (1 molepercent) transfection-efficiency as measured by luciferase-expression after 48 hours (1 μg per well) was decreased by about 30% (100% being 4*10^4 RLU equivalent to 35 ng recombinant luciferase per well). […]

## CCCCCCCC/C=C\CCCCCCCC(=O)OC[C@H](COP(=O)(O)OCCN)OC(=O)CCCCCCC/C=C\CCCCCCCC [DOPE]
RG2 cells; 1 molepercent modification-lipid instead of Lym-X-Sorb
  decrease of transfection-efficiency as measured by luciferase-expression: about 30%
RG2 cells; 20 molepercent modification-lipid
  transfection-efficiency (luciferase): 3.9±1.1 % of control
B16 melanoma cells
  luciferase expression / transfection efficiency as a function of mol % of modifier lipid: decreased luciferase expression
